tested on: GDF8 signaling (p-SMAD-3 (Ser423/425)); test: AlphaScreen SureFire SMAD3 (p-Ser423/425) assay, GDF8-stimulated cells (GDF pSMAD); assay type: cell-based; details: MPC11; GDF8-stimulated; p-SMAD3 AlphaScreen; read-out: GDF pSMAD (MPC11) (inhibition of GDF8 signaling)

Row | SMILES | IC50 [nM]
1 | Cc1cc(-c2ncccc2-c2ccc3ncc(C(=O)NC4CC5CCC(C4)N5C)n3c2)ccc1F (stereo not drawn) [compound 712, exo-6-(2-(4-Fluoro-3-methylphenyl)pyridin-3-yl)-N-(8-methyl-8-azabicyclo[3.2.1]octan-3-yl)imidazo[1,2-a]pyridine-3-carboxamide] | 4060
2 | Cc1cc(-c2ncccc2-c2ccc3ncc(C(=O)NC4CC5CCC(C4)N5C)n3c2)ccc1F (stereo not drawn) [compound 713, endo-6-(2-(4-Fluoro-3-methylphenyl)pyridin-3-yl)-N-(8-methyl-8-azabicyclo[3.2.1]octan-3-yl)imidazo[1,2-a]pyridine-3-carboxamide] | 10200

same assay, conditions: Mus musculus, MPC-11, MPC11; GDF8-stimulated; p-SMAD3 AlphaScreen; read-out: GDF pSMAD (MPC11) (inhibition of GDF8 signaling)

Row | SMILES | IC50 [nM]
3 | Cc1cc(-c2ncccc2-c2ccn3ncc(C(=O)NC4CCN(C(C)C)CC4)c3c2)ccc1F [compound 701, 5-(2-(4-Fluoro-3-methylphenyl)pyridin-3-yl)-N-(1-isopropylpiperidin-4-yl)pyrazolo[1,5-a]pyridine-3-carboxamide] | 167
4 | Cc1cc(-c2ncccc2-c2ccn3ncc(C(=O)NC4CC(C)(C)N(C)C(C)(C)C4)c3c2)ccc1F [compound 703, 5-(2-(4-Fluoro-3-methylphenyl)pyridin-3-yl)-N-(1,2,2,6,6-pentamethylpiperidin-4-yl)pyrazolo[1,5-a]pyridine-3-carboxamide] | 208
5 | Cc1cc(-c2ncccc2-c2ccn3ncc(C(=O)NCCCO)c3c2)ccc1F [compound 706, 5-(2-(4-Fluoro-3-methylphenyl)pyridin-3-yl)-N-(3-hydroxypropyl)pyrazolo[1,5-a]pyridine-3-carboxamide] | 228
6 | Cc1cc(-c2ncccc2-c2ccn3ncc(C(=O)NCCO)c3c2)ccc1F [compound 707, 5-(2-(4-Fluoro-3-methylphenyl)pyridin-3-yl)-N-(2-hydroxyethyl)pyrazolo[1,5-a]pyridine-3-carboxamide] | 222

Now from value to compound:

Row | IC50 [nM] | SMILES
7 | 138 | Cc1cc(-c2ncccc2-c2ccc3ncc(C(=O)NC4CCN(C(C)C)CC4)n3c2)ccc1F [compound 700, 6-(2-(4-Fluoro-3-methylphenyl)pyridin-3-yl)-N-(1-isopropylpiperidin-4-yl)imidazo[1,2-a]pyridine-3-carboxamide]
8 | 882 | Cc1cc(-c2ncccc2-c2ccc3ncc(C(=O)NC4CC(C)(C)N(C)C(C)(C)C4)n3c2)ccc1F [compound 702, 6-(2-(4-Fluoro-3-methylphenyl)pyridin-3-yl)-N-(1,2,2,6,6-pentamethylpiperidin-4-yl)imidazo[1,2-a]pyridine-3-carboxamide]
9 | 280 | Cc1cc(-c2ncccc2-c2ccc3ncc(C(=O)NCCCO)n3c2)ccc1F [compound 704, 6-(2-(4-Fluoro-3-methylphenyl)pyridin-3-yl)-N-(3-hydroxypropyl)imidazo[1,2-a]pyridine-3-carboxamide]
10 | 122 | Cc1cc(-c2ncccc2-c2ccc3ncc(C(=O)NCCO)n3c2)ccc1F [compound 705, 6-(2-(4-Fluoro-3-methylphenyl)pyridin-3-yl)-N-(2-hydroxyethyl)imidazo[1,2-a]pyridine-3-carboxamide]
11 | 266 | CN1CCC(NC(=O)c2cnc3ccc(-c4cccnc4-c4cccc(Cl)c4)cn23)CC1 [compound 708, 6-(2-(3-Chlorophenyl)pyridin-3-yl)-N-(1-methylpiperidin-4-yl)imidazo[1,2-a]pyridine-3-carboxamide]
12 | 252 | CN1CCC(NC(=O)c2cnc3ccc(-c4cccnc4-c4ccc(F)c(Cl)c4)cn23)CC1 [compound 709, 6-(2-(3-Chloro-4-fluorophenyl)pyridin-3-yl)-N-(1-methylpiperidin-4-yl)imidazo[1,2-a]pyridine-3-carboxamide]
13 | 1220 | CN1CCC(NC(=O)c2cnc3ccc(-c4cccnc4-c4cc(F)c(F)cc4F)cn23)CC1 [compound 710, N-(1-Methylpiperidin-4-yl)-6-(2-(2,4,5-Trifluorophenyl)pyridin-3-yl)imidazo[1,2-a]pyridine-3-carboxamide]

— US10858335B2 (Rigel Pharmaceuticals, Inc., priority 2014, dated 2020)
